Reference: US7476729B2, “Dbait and uses thereof” (Institut Curie, priority 2003, dated 2009)

Experiments:
[1] = test system: Hela cells; experiment: Clonogenic survival assay of Hela cells after 4×0.5 Gy irradiation; type: cell-based, human; settings: 4×0.5 Gy spaced 2 hours, Dbait transfected with Superfect (83 nM or 2 μg)
Method: Exponentially growing cells in six-well plates were harvested and incubated with […] of complete DMEM containing a mixture of Dbait molecules and Superfect reagent (Qiagen, Courtaboeuf, France) in a ratio of 10 μl Superfect per μg DNA. After 5 h at 37° C. under standard conditions, the cells were washed with PBS and complete DMEM was added. Where indicated, cells were exposed to irradiation either in one session (10 Gy) 5 h after the beginning of transfection or in four sessions of 0.5 Gy administered with a ^137Cs unit (1 Gy/min) 3, 4, 5 and 6 h after the beginning of transfection and allowed to grow for two weeks. When plasmid integration was measured, 2 μg of plasmid was added to Dbait transfection and puromycin (1.7 μg/ml) was added to the growth medium 48 h after transfection. Plasmid transfection efficiency was estimated by analyzing 10,000 cells for GFP expression on a FACScan flow cytometer (FACSalibur, Beckton-Dickinson, USA).
Upon 8 hours transfection of Dbait molecules in Hela cells and four irradiation with 0.5 Gy fractionated irradiation spaced 2 hours (4×0.5 Gy), performed with γ-rays from a ^137Cs source, a significant reduction of clonogenic survival was observed as compared to untransfected cells. The results are given on FIG. 2.1 wherein Panel A gives the dose-dependence of normalized survival clone number in the presence of Dbait32 (SEQ ID NO: 1) and Dbait32H (SEQ ID NO: 1), and Panel B, the normalized survival clone number in the presence of different Dbait molecules at 83 nM (concentration in culture medium). Cell culture was in MEM supplemented with 10% serum. Superfect (Qiagene) was used as transfection agent according to the manufacturer's instruction.
Clonogenic survival was estimated as the number of treated cells forming colonies on the number of untreated cells.

[2] = test system: γ-H2AX foci in GMA32 cells; experiment: Immunodetection of γ-H2AX DSB foci in GMA32 cells; type: cell-based, Chinese hamster; settings: GMA32, Dbait with lipofectamine, no irradiation
Method: Under the same conditions, the immunodetection of DSB foci of γ-H2AX phosphorylated on serine 139 by γ-H2AX labeling (bright dots or patches in nuclei) was performed in the untreated GMA32 cells, the cells transfected alone, or transfected with different Dbait molecules by lipofectamine. The counterstaining of cell membranes and nuclei were achieved by FITC-DiOC6 and DAPI. Similar effects of Dbait molecules were observed (FIG. 3.2). […] This provides visual evidence that these Dbait molecules can be used for trapping proteins involved in DSB repair via NHEJ pathway.
For immunodetection, the cells were grown on coverslip in 5 cm diameter Petri dishes 24 hours before the transfection with different Dbait molecules. One day after the transfection, FITC-DiOC6 (Molecular probes) was added in the medium 5 minutes at 37° C. (to counterstain the membranes). After 3 washing cycles, the cells were fixated with 4% PFA for 20 minutes.
After additional washing, γ-H2AX phosphorylated on serine 139 (γ-H2AX) was detected with. rabbit anti-γ-H2AX antibody (4411-PC, Trevigen) diluted 1/100 in 1×PBS, 1% BSA. Cells were washed three times with 1×PBS, 0.5%, TritonX-100, then incubated for 1 hour at room temperature with goat anti-rabbit antibodies Alexa 594 (Molecular Probes) diluted 1/100 in 1×PBS, 1% BSA. Cells were visualized by epifluorescence microscopy.

[3] = test system: U87 xenografted human glioblastoma; experiment: Radiosensitization of xenografted human glioblastoma (U87) on nude mice; type: in vivo; settings: for Number of mice where Tumor volume <4 cm^3 At the day 25 (6 mice per group): 1 nmole/intratumoral injection, total 30 Gy
Source text: Radio-sensitization was also observed in mice xenografted with human glioblastoma tumors. The glioblastoma is the highest grade of brain-tumor, and is characterized by its extraordinary aggressive progression with fast fatal outcome and resistance to radio- and chemotherapies. 2-3 millions of U87 cells derived from human glioblastoma was first injected subcutaneously in nude mouse. The grafted tumor was then took out and used to seed subsequently other nude mice by subcutaneous transplant of about 8 mm^3 glioblastoma tumor.
50% mice in the arm which received Dbait32H (SEQ ID NO: 1) (1 nmole) by intratumoral injection and irradiation (1×15 Gy/week or 3×5 Gy/week, followed by one week rest, then second treatment cycle, the total dose of ionizing radiation was 30 Gy) had tumor volume<4 cm^3 at the day 25 after the start of treatment, whereas 100% mice in the control arms (untreated or irradiated and injected with saline solution (PBS) had tumor volume well exceeded 4 cm^3, and were killed before the end of the assay according to current regulation on animal ethics before the end of the treatment.
Table 3.1: Assay of radiosensitization of xenografted human glioblastoma on nude mice by Dbait32H (SEQ ID NO: 1) (1 nmole/intratumoral injection) previously named DRIL32-PEG. Two protocols of irradiation (5 hours after intratumoral injection) were used: 1×15 Gy/week, or 3×5 Gy/week, followed by one week rest, the second treatment cycle. The total irradiation dose was 30 Gy. Control groups were the untreated or the groups received saline solution (PBS) injection.

[4] = test system: digestive tumors induced in K-Ras^V12G×Apc^1638N transgenic mice; experiment: Chemosensitization of digestive tumors in K-Ras^V12G×Apc^1638N transgenic mice; type: in vivo
Source text: An endogenous mouse tumor model was chosen to assess the ability of Dbait molecules to sensitize anticancer chemotherapy. To this end, transgenic mice carrying K-Ras^V12G and Apc^1638N mutations were used. They were obtained by breeding two transgenic mice: one carries K-Ras^V12G mutant under the control of the mouse villin promoter(pVill/K-Ras^V12G) (Janssen et al., 2002), the other contains Apc^1638N mutation in one allele (Fodde et al., 1994). Transgenic mice with pVill/K-Ras^V12G×Apc^1638N mutations developed spontaneous tumors in the digestive tract at the age of about 5 months and died rapidly.
They were treated at the mean age of 12 weeks by a combination of chemotherapy (5FU+CPT11) and of Dbait32H (SEQ ID NO: 1) versus chemotherapy alone, according to the protocol shown in FIG. 5.1 panel A. The protocol includes three treatment cycles.
Each cycle consists of intraperitoneal injection of 0.6 mg 5FU and 0.6 mg CPT11, along with 0.1 mg Dbait32H (SEQ ID NO: 1) by oral administration, three times a week, followed by one week rest.
5FU (5 fluorouracile, Teva) was prepared in 0.9% NaCl solution at the concentration of 50 mg/ml. CPT11/Irinotecan (Campto, Aventis) was prepared in 0.9% NaCl solution at the concentration of 20 mg/ml. The health status and survival of the mice were monitored till the death. […]

Dbait32H: hairpin double strand DNA with a stem of 32-bp, hexaethyleneglycol linker, phosphorothioate at the free blunt end (DNA ACGCACGGGTGTTGGGTCGTTTGTTCGGATCT; DNA, backbone not given here; hairpin, hexaethyleneglycol loop, 3-bp phosphorothioate at free blunt end)
clonogenic survival [1]: significantly reduced clonogenic survival
γ-H2AX DSB foci (cell response) [2]: effectively trigger similar cell response as if DNA damages were occurred in nuclei
mice with tumor volume<4 cm^3 at the day 25 ([3]; 1 nmole intratumoral and irradiation (1×15 Gy/week or 3×5 Gy/week)): 50%
Number of mice where Tumor volume <4 cm^3 At the day 25 (6 mice per group) ([3]; 1 × 15 Gy/week): 3/6
Number of mice where Tumor volume <4 cm^3 At the day 25 (6 mice per group) ([3]; 3 × 5 Gy/week): 3/6
median survival ([4]; 0.1 mg Dbait32H oral with 0.6 mg 5FU and 0.6 mg CPT11 i.p., three times a week, three cycles): 226 days
reduction of tumor numbers (macroscopy and histology) ([4]; 5FU+CPT11 and Dbait32H (n=8) versus chemotherapy alone (n=7), week 18): > 30%
